Patent US12643881B2, “Bicyclic amine CDK12 inhibitors” (Incyte Corporation, priority 2021, dated 2026)

Target: T1, CDK12 complexed with Cyclin K (Homo sapiens, UniProt Q9NYV4)
T1 construct: GST (N)
Experiment: CDK Enzymatic Assays (HTRF, LANCE Ultra kinase assay), Example A1
Assay type: biochemical
Conditions: enzyme pre-incubated with compounds for 60 minutes prior to addition of ATP (1 mM final) and Ulight-peptide; reaction 60-90 minutes at room temperature
From the text: Example A1. CDK Enzymatic Assays
The following activity of the CDK enzymes in complex with their respective cyclins we assayed: CDK1 complexed with Cyclin B1; CDK2 complexed with Cyclin E1; CDK4 complexed with Cyclin D1; CDK6 complexed with Cyclin D1; CDK6 complexed with Cyclin D3; CDK9 complexed with Cyclin T1; CDK7 complexed with Cyclin H/MAT1; CDK2 complexed with Cyclin A2; CDK5 complexed with p35; CDK12 complexed with Cyclin K; CDK13 complexed with Cyclin K. These in vitro enzyme activity are assayed using homogeneous time-resolved energy transfer (HTRF), which measures phosphorylation of a peptide substrate. The LANCER Ultra kinase assay (PerkinElmer) uses a ULight™-labeled EIF4E-binding protein 1 (THR37/46) peptide (DYSTTPGGTLFSTTPGTRI (SEQ ID NO: 1)) substrate and a Europium-labeled anti-phospho-4E-BP1 antibody (CDK2, CDK1, CDK4, CDK6, CDK9, CDK12, CDK13) or ULight™-labeled Myelin Basic Protein peptide (VTPRTPPP (SEQ ID NO: 2)) substrate and a Europium-labeled anti-phospho-MBP antibody (CDK7). Each CDK enzyme activity assays utilized human CDK co-expressed as N-terminal GST-tagged protein with its full length cyclin partner using a baculovirus expression system.
Enzyme was pre-incubated with compounds for 30 minutes (CDK1,2,4,6,9) or 60 minutes (CDK7, CDK12, CDK13) prior to addition of ATP and Ulight-peptide (1 mM and 50 nM final, respectively), in assay buffer containing 50 mM HEPES pH 7.5, 1 mM EGTA, 10 mM MgCl2, 2 mM DTT, 0.05 mg/mL BSA, and 0.01% Tween 20. The reaction was then incubated for 60-90 minutes at room temperature. The reactions were stopped by the addition of EDTA and Europium labeled antibody, for a final concentration of 15 mM and 1.0-1.5 nM, respectively. HTRF signals were read after 15-120 minutes. A ratio of fluorescence transferred to the labeled substrate (665 nm) relative to fluorescence of the Europium donor (620 nm) represents the extent of phosphorylation. Ratios for treated wells were normalized to DMSO only (100% activity) and no enzyme (0% activity) controls. Normalized data was analyzed using a three or four parameter dose response curve to determine IC50 for each compound and are shown in Table A. Control reference inhibitors were included on each plate.

T1 sequence (Q9NYV4 whole entry): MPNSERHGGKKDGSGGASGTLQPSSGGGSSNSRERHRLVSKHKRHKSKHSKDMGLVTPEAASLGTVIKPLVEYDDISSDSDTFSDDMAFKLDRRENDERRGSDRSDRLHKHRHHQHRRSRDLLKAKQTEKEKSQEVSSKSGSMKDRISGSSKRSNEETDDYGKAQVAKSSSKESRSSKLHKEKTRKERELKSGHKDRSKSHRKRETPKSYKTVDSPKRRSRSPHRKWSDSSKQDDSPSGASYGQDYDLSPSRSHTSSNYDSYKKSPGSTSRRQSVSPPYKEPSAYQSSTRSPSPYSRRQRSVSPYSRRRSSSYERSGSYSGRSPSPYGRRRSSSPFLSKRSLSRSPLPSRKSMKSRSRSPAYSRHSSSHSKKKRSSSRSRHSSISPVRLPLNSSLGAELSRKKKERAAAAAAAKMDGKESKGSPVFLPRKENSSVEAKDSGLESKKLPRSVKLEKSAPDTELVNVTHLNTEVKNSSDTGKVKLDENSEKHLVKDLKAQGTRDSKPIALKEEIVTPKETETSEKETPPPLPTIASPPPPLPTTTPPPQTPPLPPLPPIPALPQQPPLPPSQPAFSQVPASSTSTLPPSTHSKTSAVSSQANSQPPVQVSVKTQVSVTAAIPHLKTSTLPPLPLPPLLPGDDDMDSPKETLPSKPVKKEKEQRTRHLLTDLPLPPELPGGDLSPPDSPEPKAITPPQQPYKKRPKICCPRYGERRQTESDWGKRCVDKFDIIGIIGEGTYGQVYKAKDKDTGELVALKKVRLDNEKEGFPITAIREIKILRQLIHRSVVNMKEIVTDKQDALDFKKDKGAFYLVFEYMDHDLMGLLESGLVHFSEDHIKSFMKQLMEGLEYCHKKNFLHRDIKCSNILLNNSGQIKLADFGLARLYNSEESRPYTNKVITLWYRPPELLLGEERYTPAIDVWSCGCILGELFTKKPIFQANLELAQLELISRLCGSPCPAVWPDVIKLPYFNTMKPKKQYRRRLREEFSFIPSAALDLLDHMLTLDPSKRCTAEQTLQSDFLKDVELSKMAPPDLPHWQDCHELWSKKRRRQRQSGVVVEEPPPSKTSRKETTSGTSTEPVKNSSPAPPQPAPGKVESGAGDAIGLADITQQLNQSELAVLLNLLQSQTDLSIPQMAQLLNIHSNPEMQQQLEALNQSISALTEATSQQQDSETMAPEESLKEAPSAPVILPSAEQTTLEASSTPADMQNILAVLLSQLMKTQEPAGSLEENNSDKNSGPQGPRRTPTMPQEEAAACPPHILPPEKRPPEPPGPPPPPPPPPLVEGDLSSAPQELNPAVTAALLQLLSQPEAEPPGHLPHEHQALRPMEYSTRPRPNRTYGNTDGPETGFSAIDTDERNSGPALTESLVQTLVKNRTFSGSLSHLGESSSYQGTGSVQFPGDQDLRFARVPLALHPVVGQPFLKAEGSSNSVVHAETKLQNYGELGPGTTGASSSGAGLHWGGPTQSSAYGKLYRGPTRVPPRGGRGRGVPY
T1 sequence (O75909 whole entry partner): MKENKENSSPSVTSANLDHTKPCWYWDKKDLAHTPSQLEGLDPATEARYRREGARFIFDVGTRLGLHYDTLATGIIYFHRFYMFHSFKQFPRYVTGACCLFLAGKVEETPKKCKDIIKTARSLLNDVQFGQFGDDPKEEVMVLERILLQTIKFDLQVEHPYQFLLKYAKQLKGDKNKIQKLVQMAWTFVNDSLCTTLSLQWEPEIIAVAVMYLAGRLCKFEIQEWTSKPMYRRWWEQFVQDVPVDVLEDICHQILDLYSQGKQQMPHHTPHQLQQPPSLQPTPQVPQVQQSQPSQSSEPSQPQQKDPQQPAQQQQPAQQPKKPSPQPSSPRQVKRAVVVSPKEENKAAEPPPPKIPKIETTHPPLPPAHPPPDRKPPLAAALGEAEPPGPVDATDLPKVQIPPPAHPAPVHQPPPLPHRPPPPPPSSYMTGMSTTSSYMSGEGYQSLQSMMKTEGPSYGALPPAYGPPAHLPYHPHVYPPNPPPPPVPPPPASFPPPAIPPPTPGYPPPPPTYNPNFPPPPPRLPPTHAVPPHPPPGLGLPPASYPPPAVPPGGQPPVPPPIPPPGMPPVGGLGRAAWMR

| SMILES | IC50 |
| --- | --- |
| C=CC(=O)Nc1ccc2c(c1)C(=O)N([C@H]1CCC[C@@H](Nc3ncc(C#N)c(C)n3)C1)C2 [Example 9, N-(2-((1S,3R)-3-((5-Cyano-4-methylpyrimidin-2-yl)amino)cyclohexyl)-3-oxoisoindolin-5-yl)acrylamide] | < 50 nM |
| C=CC(=O)Nc1ccc2c(c1)C(=O)N([C@H]1CCC[C@@H](Nc3ncc(-c4ccc(OC)cc4)cn3)C1)C2 [Example 4, N-(2-((1S,3R)-3-((5-(4-Methoxyphenyl)pyrimidin-2-yl)amino)cyclohexyl)-3-oxoisoindolin-5-yl)acrylamide] | > 500 nM |
| COc1nc(N[C@@H]2CCC[C@H](c3nc4cc(NC(=O)C(C)Br)ccc4n3C)C2)ncc1C#N (stereo partly drawn) [Example 52, 2-Bromo-N-(2-((1S,3R)-3-((5-cyano-4-methoxypyrimidin-2-yl)amino)cyclohexyl)-1-methyl-1H-benzo[d]imidazol-5-yl)propanamide] | < 50 nM |
| C=CC(=O)Nc1ccc2c(c1)C(=O)N([C@H]1CCC[C@@H](Nc3ncc(C#N)c(N(C)C)n3)C1)C2 [Example 77, N-(2-((1S,3R)-3-((5-Cyano-4-(dimethylamino)pyrimidin-2-yl)amino)cyclohexyl)-3-oxoisoindolin-5-yl)acrylamide] | < 50 nM |
| C=CC(=O)Nc1ccc2c(c1)nc(N1C[C@H](F)C[C@@H](Nc3ncc(C(F)(F)F)cn3)C1)n2C [Example 93, N-(2-((3R,5R)-3-Fluoro-5-((5-(trifluoromethyl)pyrimidin-2-yl)amino)piperidin-1-yl)-1-methyl-1H-benzo[d]imidazol-5-yl)acrylamide] | < 50 nM |
| C=CC(=O)Nc1ccc2c(c1)C(=O)N([C@H]1CCC[C@@H](Nc3ncc(C4CC4)cn3)C1)C2 [Example 11, N-(2-((1S,3R)-3-((5-Cyclopropylpyrimidin-2-yl)amino)cyclohexyl)-3-oxoisoindolin-5-yl)acrylamide] | 50 to 500 nM |
| C=CC(=O)Nc1ccc2nc(N3CCC[C@@H](Nc4ncc(C#N)c(OC)n4)C3)nn2c1 [Example 44, (R)—N-(2-(3-((5-Cyano-4-methoxypyrimidin-2-yl)amino)piperidin-1-yl)-[1,2,4]triazolo[1,5-a]pyridin-6-yl)acrylamide] | < 50 nM |
| C=CC(=O)Nc1ccc2c(c1)C(=O)N([C@H]1CCC[C@@H](Nc3ncc(C(F)(F)F)c(N4CC[C@@H](N(C)C)C4)n3)C1)C2 [Example 62, N-(2-((1S,3R)-3-((4-((R)-3-(Dimethylamino)pyrrolidin-1-yl)-5-(trifluoromethyl)pyrimidin-2-yl)amino)cyclohexyl)-3-oxoisoindolin-5-yl)acrylamide] | < 50 nM |
| CCC(Br)C(=O)Nc1ccc2c(c1)nc([C@H]1CCC[C@@H](Nc3ncc(C#N)c(OC)n3)C1)n2C (stereo partly drawn) [Example 49, 2-Bromo-N-(2-((1S,3R)-3-((5-cyano-4-methoxypyrimidin-2-yl)amino)cyclohexyl)-1-methyl-1H-benzo[d]imidazol-5-yl)butanamide] | < 50 nM |
| COc1nc(N[C@@H]2CCC[C@H](N3Cc4ccc(NC(=O)/C=C/CF)cc4C3=O)C2)ncc1C#N [Example 57, (E)-N-(2-((1S,3R)-3-((5-Cyano-4-methoxypyrimidin-2-yl)amino)cyclohexyl)-3-oxoisoindolin-5-yl)-4-fluorobut-2-enamide] | 50 to 500 nM |
| C=CC(=O)Nc1ccc2c(c1)C(=O)N([C@H]1CCC[C@@H](Nc3ncc(C(F)(F)F)s3)C1)C2 [Example 29, N-(3-Oxo-2-((1S,3R)-3-((5-(trifluoromethyl)thiazol-2-yl)amino)cyclohexyl)isoindolin-5-yl)acrylamide] | < 50 nM |

The remaining lines, values ahead:

| IC50 | SMILES |
| --- | --- |
| < 50 nM | C=CC(=O)Nc1ccc2c(N3CCC[C@@H](Nc4ncc(C#N)c(OC)n4)C3)nn(C)c2c1 [Example 43, (R)—N-(3-(3-((5-Cyano-4-methoxypyrimidin-2-yl)amino)piperidin-1-yl)-1-methyl-1H-indazol-6-yl)acrylamide] |
| < 50 nM | C=CC(=O)Nc1ccc2c(c1)C(=O)N([C@H]1CCC[C@@H](Nc3ncc(C#N)c(NC)n3)C1)C2 [Example 67, N-(2-((1S,3R)-3-((5-Cyano-4-(methylamino)pyrimidin-2-yl)amino)cyclohexyl)-3-oxoisoindolin-5-yl)acrylamide] |
| < 50 nM | C=CC(=O)Nc1ccc2c(c1)nc(N1CC[C@@H](F)[C@@H](Nc3ncc(C(F)(F)F)cn3)C1)n2C [Example 90, N-(2-((3S,4R)-4-Fluoro-3-((5-(trifluoromethyl)pyrimidin-2-yl)amino)piperidin-1-yl)-1-methyl-1H-benzo[d]imidazol-5-yl)acrylamide] |
| < 50 nM | COc1nc(N[C@@H]2CCCN(c3cc4c(cn3)c(NC(=O)CCl)nn4C)C2)ncc1C#N [Example 33, (R)-2-Chloro-N-(6-(3-((5-cyano-4-methoxypyrimidin-2-yl)amino)piperidin-1-yl)-1-methyl-1H-pyrazolo[4,3-c]pyridin-3-yl)acetamide] |
| < 50 nM | C=CC(=O)N1C2CCC1CN(c1nccn3c(N4CCC[C@@H](Nc5ncc(C(F)(F)F)cn5)C4)ncc13)C2 [Example 109, 1-(3-(3-((R)-3-((5-(Trifluoromethyl)pyrimidin-2-yl)amino)piperidin-1-yl)imidazo[1,5-a]pyrazin-8-yl)-3,8-diazabicyclo[3.2.1]octan-8-yl)prop-2-en-1-one] |
| > 500 nM | C/C=C/C(=O)Nc1ccc2c(c1)C(=O)N([C@H]1CCC[C@@H](Nc3ncc(C#N)c(OC)n3)C1)C2 [Example 64, (E)-N-(2-((1S,3R)-3-((5-Cyano-4-methoxypyrimidin-2-yl)amino)cyclohexyl)-3-oxoisoindolin-5-yl)but-2-enamide] |
| < 50 nM | C=CC(=O)Nc1cc2nc(N3CCC(F)(F)[C@@H](Nc4ncc(C(F)(F)F)cn4)C3)n(C)c2cc1C [Example 97, (S)—N-(2-(4,4-Difluoro-3-((5-(trifluoromethyl)pyrimidin-2-yl)amino)piperidin-1-yl)-1,6-dimethyl-1H-benzo[d]imidazol-5-yl)acrylamide] |
| < 50 nM | C=CC(=O)Nc1cncc2sc(N3CC[C@@H](Nc4ncc(C#N)c(OC)n4)C3)nc12 [Example 38, (R)—N-(2-(3-((5-Cyano-4-methoxypyrimidin-2-yl)amino)pyrrolidin-1-yl)thiazolo[5,4-c]pyridin-7-yl)acrylamide] |
| 50 to 500 nM | C=C(F)C(=O)Nc1ccc2c(c1)C(=O)N([C@H]1CCC[C@@H](Nc3ncc(C#N)c(OC)n3)C1)C2 [Example 56, N-(2-((1S,3R)-3-((5-Cyano-4-methoxypyrimidin-2-yl)amino)cyclohexyl)-3-oxoisoindolin-5-yl)-2-fluoroacrylamide] |
| < 50 nM | C=CC(=O)Nc1ccc2c(c1)C(=O)N([C@H]1CCC[C@@H](Nc3ncc(C(F)(F)F)c(OC)n3)C1)C2 [Example 61, N-(2-((1S,3R)-3-((4-Methoxy-5-(trifluoromethyl)pyrimidin-2-yl)amino)cyclohexyl)-3-oxoisoindolin-5-yl)acrylamide] |
| 50 to 500 nM | C=CC(=O)Nc1ccc2c(N3CCC[C@@H](Nc4ncc(C#N)c(OC)n4)C3)csc2c1 [Example 42, (R)—N-(3-(3-((5-Cyano-4-methoxypyrimidin-2-yl)amino)piperidin-1-yl)benzo[b]thiophen-6-yl)acrylamide] |
| < 50 nM | C=CC(=O)Nc1ccc2c(c1)ncn2[C@H]1CCC[C@@H](Nc2ncc(C#N)c(OC)n2)C1 [Example 79, N-(1-((1S,3R)-3-((5-Cyano-4-methoxypyrimidin-2-yl)amino)cyclohexyl)-1H-benzo[d]imidazol-5-yl)acrylamide] |
| > 500 nM | C=CC(=O)Nc1ccc2c(c1)C(=O)N([C@H]1CCC[C@@H](Nc3ncc(-c4cnn(C)c4)cn3)C1)C2 [Example 8, N-(2-((1S,3R)-3-((5-(1-Methyl-1H-pyrazol-4-yl)pyrimidin-2-yl)amino)cyclohexyl)-3-oxoisoindolin-5-yl)acrylamide] |
| < 50 nM | C#Cc1cnc(N[C@@H]2CCC[C@H](N3Cc4ccc(NC(=O)C=C)cc4C3=O)C2)nc1 [Example 17, N-(2-((1S,3R)-3-((5-Ethynylpyrimidin-2-yl)amino)cyclohexyl)-3-oxoisoindolin-5-yl)acrylamide] |
| < 50 nM | C=CC(=O)Nc1ccc2c(c1)C(=O)N([C@H]1CCC[C@@H](Nc3ncc(Cl)cn3)C1)C2 [Example 82, N-(2-((1S,3R)-3-((5-Chloropyrimidin-2-yl)amino)cyclohexyl)-3-oxoisoindolin-5-yl)acrylamide] |
| 50 to 500 nM | C=CC(=O)Nc1ccc2c(c1)C(=O)N([C@H]1CCC[C@@H](Nc3ncc(C)c(OC)n3)C1)C2 [Example 13, N-(2-((1S,3R)-3-((4-Methoxy-5-methylpyrimidin-2-yl)amino)cyclohexyl)-3-oxoisoindolin-5-yl)acrylamide] |
